In the supplement of paper PMC10307832:

How the values were obtained:
Assay in all cases: relative viability (nuclei count vs DMSO), 5 days (fraction); higher = more cells survive
[1] = compound: Cc1cnc(CNC(=O)c2c(=O)c3ccc(N4CCCN(C)CC4)nc3n3c2sc2ccccc23)cn1 [CX-5461] + O=C(c1cc(Cc2n[nH]c(=O)c3ccccc23)ccc1F)N1CCN(C(=O)C2CC2)CC1 [Olaparib] (partner 8 µM)
In short: (§1)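 Values are medians from duplicate plates. Each reflects relative viability, defined as the nuclei count of treated wells over that of vehicle wells. Lung cancer cell lines in 1536-well plates were pin-tool dosed one day after seeding with one drug alone or with a fixed anchor-drug dose plus five library-drug doses (not always all listed) in √10 steps, then fixed, stained and imaged at 4× after 5 days.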

[2] = compound: Cc1cnc(CNC(=O)c2c(=O)c3ccc(N4CCCN(C)CC4)nc3n3c2sc2ccccc23)cn1 [CX-5461] + CCNC(=O)c1noc(-c2cc(C(C)C)c(O)cc2O)c1-c1ccc(CN2CCOCC2)cc1 [Luminespib] (partner 0.01 µM)
In short: as §1

[3] = compound: O=C(Nc1cc(C(F)(F)F)cc(C(F)(F)F)c1)c1cc(Cl)ccc1O [IMD-0354] + NC(=O)Nc1cc(-c2cccc(F)c2)sc1C(=O)N[C@H]1CCCNC1 [AZD7762] (partner 0.2 µM)
In short: as §1

[4] = compound: O=C(Nc1cc(C(F)(F)F)cc(C(F)(F)F)c1)c1cc(Cl)ccc1O [IMD-0354] + CS(=O)(=O)N1CCN(Cc2cc3nc(-c4cccc5[nH]ncc45)nc(N4CCOCC4)c3s2)CC1 [Pictilisib] (partner 1 µM)
In short: as §1

Cell Line	relative viability ([1]; first compound 0.01 µM)	relative viability ([1]; first compound 0.03162 µM)	relative viability ([1]; first compound 0.1 µM)	relative viability ([1]; first compound 0.3162 µM)	relative viability ([1]; first compound 1 µM)	relative viability ([2]; first compound 0.01 µM)	relative viability ([2]; first compound 0.03162 µM)	relative viability ([2]; first compound 0.1 µM)	relative viability ([2]; first compound 0.3162 µM)	relative viability ([2]; first compound 1 µM)	relative viability ([3]; first compound 0.04 µM)	relative viability ([3]; first compound 0.1265 µM)	relative viability ([3]; first compound 0.4 µM)	relative viability ([3]; first compound 1.265 µM)	relative viability ([3]; first compound 4 µM)	relative viability ([4]; first compound 0.04 µM)	relative viability ([4]; first compound 0.1265 µM)	relative viability ([4]; first compound 0.4 µM)	relative viability ([4]; first compound 1.265 µM)	relative viability ([4]; first compound 4 µM)
NCI-H1915	0.259	0.255	0.242	0.262	0.252	0.857	0.852	0.813	0.923	0.783	0.666	0.694	0.58	0.507	0.149	0.68	1.02	0.671	0.33	0.199
NCI-H1944	0.409	0.381	0.422	0.392	0.395	0.854	0.711	0.864	0.51	0.672	0.433	0.541	0.488	0.321	0.156	0.351	0.341		0.234	0.151
RERF-LC-KJ	0.785	0.827	0.619	0.848	0.415	1.28	1.24	1.19	1.27	0.687	1.1	1		0.327	0.184	0.518	0.595	0.542	0.233	0.226
LXF-289	1.03	1.19	1.05		0.953	0.627	0.798	0.823	0.732	0.662	1.07	1.09	0.866	0.345	0.133	0.798	0.787	0.524	0.157	0.0919
PC-14	0.241	0.252	0.125	0.213	0.0738	0.14	0.163	0.222	0.204	0.124	0.424	0.391	0.145	0.128	0.108	1.05	0.713		0.409	0.132
NCI-H650	0.369	0.399	0.399	0.329	0.337	0.767	0.743	0.799	0.711	0.364	0.926	1.01	0.822	0.566	0.174	1.09	0.89	0.597	0.415	0.239
NCI-H1666	0.708	0.731	0.748	0.696	0.676	0.938	0.93	0.922	1.01	0.775	0.777	0.957	0.689	0.623	0.467	0.308	0.434	0.295	0.176	0.201
NCI-H2085	0.772	0.783	0.845	0.787	0.736	0.488	0.404	0.32	0.567	0.405	1.18	1.12	0.754	0.324	0.359	0.404	0.422	0.424	0.309	0.303
